ChEMBL document CHEMBL2057121, “Selective non-lipid modulator of LPA5 activity in human platelets” (Bioorg Med Chem Lett, 2012)

Columns and labels:
[1] = target: Lysophosphatidic acid receptor 1/3 (Homo sapiens, UniProt Q9UBY5+Q92633); assay: Antagonist activity at LPA1/3 receptor in human isolated platelets assessed as inhibition of collagen-induced platelet aggregation after 3 mins; type: functional
[2] = target: Lysophosphatidic acid receptor 5 (Homo sapiens, UniProt Q9H1C0); assay: Antagonist activity at human recombinant LPA5 receptor expressed in rat RH7777 cells assessed as inhibition of hexadecyl-LPA-induced effect; type: functional, cell-based
Lysophosphatidic acid receptor 5, sequence (Q9H1C0 whole entry): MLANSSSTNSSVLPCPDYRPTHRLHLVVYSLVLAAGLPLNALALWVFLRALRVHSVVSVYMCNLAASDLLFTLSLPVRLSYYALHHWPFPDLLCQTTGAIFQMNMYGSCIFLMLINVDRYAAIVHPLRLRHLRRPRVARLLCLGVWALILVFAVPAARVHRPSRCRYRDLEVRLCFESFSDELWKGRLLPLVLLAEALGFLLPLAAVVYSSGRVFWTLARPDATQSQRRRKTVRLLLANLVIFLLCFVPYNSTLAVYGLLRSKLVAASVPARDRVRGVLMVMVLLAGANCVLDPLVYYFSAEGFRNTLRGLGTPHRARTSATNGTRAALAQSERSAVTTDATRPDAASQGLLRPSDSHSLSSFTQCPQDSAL

IC50 [1]: > 10000 nM
IC50 [2]: 800 nM
SMILES: COc1cccc(-n2nc(C(=O)O)cc2-c2ccc(C3CCCCC3)c(Cl)c2)c1
